Data set [1] in a line: Plasma protein binding, human (equilibrium dialysis). Format: in vitro ADME. As to conditions: pH 7.4, read-out: PPB human (converted). The procedure: (§1) Plasma protein binding and Brain homogenate binding: Determination of fraction unbound (f u) in plasma was conducted in vitro via equilibrium dialysis using HTDialysis (HTD) membrane plates. The top half of the plate was filled with 100 uL of Dubelco’s Phosphate Buffered Saline, pH 7.4 (DPBS). Compounds were diluted into plasma from each species (5 µM final concentration), which was aliquoted in triplicate to the ‘bottom half’ of the prepared HTD plate wells. The HTD plate was sealed and incubated for 6 hours at 37 °C. Following incubation, each well (both top and bottom halves) were transferred (20 µL) to the corresponding wells of a 96-shallow-well (V-bottom) plate. The daughter plates were then matrix-matched (DPBS side wells received equal volume of plasma, and plasma side wells received equal volume of DPBS), and extraction solution (120 µL; acetonitrile containing 50 nM carbamazepine as IS) was added to all wells of both daughter plates to precipitate protein and extract test article. The plates were then sealed and centrifuged (3500 rcf) for 10 minutes at ambient temperature. Supernatant (60 µL) from each well of the daughter plates was then transferred to the corresponding wells of new daughter plates (96-shallow-well, V bottom) containing water (Milli-Q, 60 µL/well), and the plates were sealed in preparation for LC-MS/MS analysis (see LC-MS/MS analysis method below).
(§2) The unbound fraction (f u) was calculated following the equation below, and mean values for each species were calculated from 3 replicates. […]
(§3) Fraction unbound for both plasma and brain samples was determined using Equation 4.
(§4) Equation 4 Determination of fraction unbound in plasma. […]

The nature of data set [2]: Liver microsome intrinsic clearance, rat. As to conditions: pH 7.4; rat liver microsomes, predicted intrinsic clearance; read-out: LMS CLINT rat. Type of data set: in vitro ADME. The procedure: (§5) were incubated in 100 mM potassium phosphate pH 7.4 buffer with 3 mM MgCl2 at 37 °C with constant shaking. After a 5 min preincubation, the reaction was initiated by the addition of NADPH (1 mM). At selected time intervals (0, 3, 7, 15, 25, and 45 min), aliquots were taken and subsequently placed into a 96-well plate containing cold acetonitrile with internal standard (50 ng/mL carbamazepine). Plates were then centrifuged at 3000 rcf (4 °C) for 10 min, and the supernatant was transferred to a separate 96-well plate and diluted 1:1 with water for LC/MS/MS analysis. The in vitro half-life ( 1/2, min, Eq. 1), intrinsic clearance (CLint, mL/min/kg, Eq. 2), and subsequent predicted hepatic clearance (CLhep, mL/min/kg, Eq. 3) was determined employing the […]
(§6) where k represents the slope from linear regression analysis of the natural log percent remaining of a test compound as a function of incubation time […]
(§7) (2) CLint = in vitroT x mg microsomes x gram liver x kg body wt ascale-up factors: of 20 (human) or 45 (rat) […]
(§8) where Qh (hepatic blood flow, mL/min/kg) is 21 (human) or 70 (rat).
(§9) LC/MS/MS Bioanalysis of Samples from Plasma Protein Binding and Intrinsic Clearance […]
(§10) Samples were analyzed on a Thermo Electron TSQ Quantum Ultra triple quad mass spectrometer (San Jose, CA) via electrospray ionization (ESI) with two Themo Electron Accella pumps (San Jose, CA), and a Leap Technologies CTC PAL autosampler (Carrboro, NC). Analytes were […]

The nature of data set [3]: Plasma protein binding, mouse. Format: in vitro ADME. As to conditions: mouse, plasma, pH 7.4, mouse plasma, bound; read-out: PPB mouse (converted). As to the method:
as §1, §2, §3, §4

Data set [4] is described as follows: Liver microsome intrinsic clearance, mouse. Type of data set: in vitro ADME. The following applies: mouse liver microsomes, predicted intrinsic clearance; read-out: LMS CLINT mouse.
A short description of data set [5]: Liver microsome intrinsic clearance, human. Type of data set: in vitro ADME. The following applies: pH 7.4; human liver microsomes, predicted intrinsic clearance; read-out: LMS CLINT human. As to the method: as §5, §6, §7, §8, §9, §10
A further data set concerns the target T1, hTREK-1 (Homo sapiens, UniProt O95069).
T1 construct: expressed in transfected cells
T1 sequence (O95069 1-426): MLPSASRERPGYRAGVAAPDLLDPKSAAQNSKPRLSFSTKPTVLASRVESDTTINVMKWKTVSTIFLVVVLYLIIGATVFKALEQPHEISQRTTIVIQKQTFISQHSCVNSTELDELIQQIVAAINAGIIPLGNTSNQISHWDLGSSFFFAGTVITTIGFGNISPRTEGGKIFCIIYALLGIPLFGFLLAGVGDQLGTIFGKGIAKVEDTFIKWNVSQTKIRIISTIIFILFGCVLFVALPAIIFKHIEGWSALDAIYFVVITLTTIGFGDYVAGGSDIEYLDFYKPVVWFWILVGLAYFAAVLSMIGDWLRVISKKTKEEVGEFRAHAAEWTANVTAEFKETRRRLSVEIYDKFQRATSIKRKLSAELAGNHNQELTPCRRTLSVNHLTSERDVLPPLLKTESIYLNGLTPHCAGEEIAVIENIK
The data set can be described thus: hTREK-1 manual patch clamp assay. Format: cell-based. As to conditions: human TREK-1, manual patch clamp; read-out: TREK-1 IC50 (human, MPC). The procedure:
(§11) hTREK-1 and mTREK-1 patch clamp assay
(§12) CHO-K1 cells stably expressing hTREK-1 or CHO-K1 cells transiently expressing mouse TREK-1 (mTREK-1) were plated on glass coverslips, and voltage clamped in the whole-cell configuration of the patch clamp technique. Cells were voltage clamped at a holding potential of - 80 mV and the stepped to 0 mV for 500 msec. The voltage was subsequently ramped from -120mV to +80 mV over a 500 msec duration. This step-ramp protocol was repeated every 10 sec. The bathing solution contained the following: 135 mM NaCl, 5 mM KCl, 2 mM CaCl2, 1 mM MgCl2, 5 mM D-Glucose, 10 mM HEPES, 10 mM sucrose (adjusted to pH 7.4 with NaOH, 300 mosmol/kg H2O). The pipette solution contained the following: 135 mM KCl, 2 mM MgCl2, 1 mM EGTA, 10 mM HEPES, 2 mM Na2ATP (adjusted to pH 7.35 with KOH, 285 mosmol/kg H2O). Test […]
(§13) compounds were dissolved into the bathing solution. The effects of test compound on the currents were calculated at 0 mV using the following equations:
(§14) % inhibition = (1-post current/pre current) x 100
(§15) % inhibition vs compound concentrations were plotted in GraphPad Prism and calculated IC50. […]

The nature of a further data set: ChromatoLogD. Format: physicochemical.
Another data set deals with T2, human TREK-1 (hTREK-1) (Homo sapiens, UniProt O95069).
T2 construct: expressed in transfected cells
T2 sequence (O95069 1-426): T1 sequence (O95069 1-426)
In words: TREK-1 thallium flux assay (CHO-K1 cells stably expressing hTREK-1). The following applies: human TREK-1, thallium flux; read-out: h TREK-1 Tl+ IC50. Format: cell-based. As to the method: Procedures for Biological Experiments
TREK-1 Thallium flux assay
CHO-K1 cells stably expressing hTREK-1 were cultured in T225 flask. The cells were loaded with FluxOR dye and plated in 384 well plate at the experiment day. Test compounds or control compound (tert-butyl (3-((4-(benzyloxy)-2-methylphenyl)carbamoyl)-4-chlorophenyl)carbamate) or 0.3% DMSO (vehicle control) were added directly to the cell plates and incubated for 10 min, and then treated with thallium stimulus buffer to initiate thallium flux.
To measure the efficacy and potency of test compounds, the change in fluorescence intensity (ΔRatio) and % inhibition were calculated using the following equations:
ΔRatio = (fluorescence intensity at 25 seconds after thallium addition)/(average of fluorescent intensity before thallium addition)
0.3% DMSO - ΔRatio of 10 μM control compound)}x100
% inhibition vs compound concentration were plotted in XLfit and calculated IC50.
CHO-K1 cells stably expressing human TREK-1 (hTREK-1) were cultured in T225 flask.
The cells were loaded with FluxOR dye and plated in 384 well plate at the experiment day. Test compounds or control compound (tert-butyl (3-((4-(benzyloxy)-2-methylphenyl)carbamoyl)-4-chlorophenyl)carbamate) or 0.3% DMSO (vehicle control) which were prepared on separate plates were added to the cell plates and incubated for 10 min, and then the cells with test compounds or […]
chlorophenyl)carbamate) or 0.3% DMSO (vehicle control) were treated with thallium stimulus buffer to initiate thallium flux. To measure the efficacy and potency of test compounds, the change in fluorescence intensity (ΔRatio) and % inhibition were calculated using the following equations: […]

The target in another data set is T3, mouse TREK-1 (mTREK-1) (Mus musculus, UniProt P97438).
T3 construct: expressed in transfected cells; host or cells: CHO-K1 (transient)
T3 sequence (P97438 1-426): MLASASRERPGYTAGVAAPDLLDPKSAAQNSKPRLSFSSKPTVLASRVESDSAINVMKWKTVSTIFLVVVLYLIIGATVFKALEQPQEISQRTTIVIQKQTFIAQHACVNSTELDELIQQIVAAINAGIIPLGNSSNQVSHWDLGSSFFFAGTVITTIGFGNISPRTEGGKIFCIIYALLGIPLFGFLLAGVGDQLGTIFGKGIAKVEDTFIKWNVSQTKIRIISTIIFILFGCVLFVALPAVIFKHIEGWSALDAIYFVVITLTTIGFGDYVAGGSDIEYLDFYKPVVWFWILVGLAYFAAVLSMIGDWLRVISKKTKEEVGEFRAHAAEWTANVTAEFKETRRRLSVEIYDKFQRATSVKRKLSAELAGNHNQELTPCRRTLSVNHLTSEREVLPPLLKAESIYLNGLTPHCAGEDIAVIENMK
In words: mTREK-1 manual patch clamp assay. As to conditions: mouse TREK-1, manual patch clamp; read-out: TREK-1 IC50 (mouse, MPC). Type of data set: cell-based. As to the method: as §11, §12, §13, §14, §15

Turning to `CC(=O)N1CC(F)(Cn2ncc(Cl)c2C(=O)Nc2ncc(C#Cc3ccccc3)cc2C)C1` [Compound 15e, 1-((1-Acetyl-3-fluoroazetidin-3-yl)methyl)-4-chloro-N-(3-methyl-5-(phenylethynyl)pyridin-2-yl)-1H-pyrazole-5-carboxamide], the fraction unbound at 6 h, 5 µM in data set [1] was 0.039; in data set [3] it was 0.022. Also, the CLint scaled at 1 µM in [2] is 72 mL/min/kg; in data set [5] it was 16 mL/min/kg. Moreover, the CLint scaled in data set [4] is 340 mL/min/kg.

Consider `Cc1cc(C#Cc2ccccc2)cnc1NC(=O)c1cc(OC[C@H]2COCCO2)ccc1Cl` [Compound 13d, (R)-5-((1,4-Dioxan-2-yl)methoxy)-2-chloro-N-(3-methyl-5-(phenylethynyl)pyridin-2-yl)benzamide], for which the IC50 on hTREK-1 came to 11 nM; at human TREK-1 (hTREK-1) it was 110 nM; on mouse TREK-1 (mTREK-1), 1200 nM. This molecule also came in with a chromatographic logD in “ChromatoLogD” of 4.14.
